Assay results from the kinase profiling compilation of Christmann-Franck et al. (2016).

Key:
Test in all cases: KINOMEscan competition binding
Details in all cases: compound 10.0 µM
ACVR1B (human) = ACVR1B (human) (UniProt P36896)
BMPR1A (human) = BMPR1A (human) (UniProt P36894)
CDC42BPA (human) = CDC42BPA (human) (UniProt Q5VT25)
CDK15 (human) = CDK15 (human) (UniProt Q96Q40)
CDK3 (human) = CDK3 (human) (UniProt Q00526)
CLK1 (human) = CLK1 (human) (UniProt P49759)
CSK (human) = CSK (human) (UniProt P41240)
FGFR1 (human) = FGFR1 (human) (UniProt P11362)
FLT3 (human) = FLT3 (human) (UniProt P36888)
GRK4 (human) = GRK4 (human) (UniProt P32298)
HIPK1 (human) = HIPK1 (human) (UniProt Q86Z02)
IKBKB (human) = IKBKB (human) (UniProt O14920)
LRRK2 (human) = LRRK2 (human) (UniProt Q5S007)
MAP3K1 (human) = MAP3K1 (human) (UniProt Q13233)
MAP3K4 (human) = MAP3K4 (human) (UniProt Q9Y6R4)
MAP3K5 (human) = MAP3K5 (human) (UniProt Q99683)
MAP3K7 (human) = MAP3K7 (human) (UniProt O43318)
MAPK10 (human) = MAPK10 (human) (UniProt P53779)
MAPK4 (human) = MAPK4 (human) (UniProt P31152)
MAPKAPK2 (human) = MAPKAPK2 (human) (UniProt P49137)
MARK1 (human) = MARK1 (human) (UniProt Q9P0L2)
NLK (human) = NLK (human) (UniProt Q9UBE8)
PIM2 (human) = PIM2 (human) (UniProt Q9P1W9)
PIM3 (human) = PIM3 (human) (UniProt Q86V86)
PRKAA1 (human) = PRKAA1 (human) (UniProt Q13131)
PRKAA2 (human) = PRKAA2 (human) (UniProt P54646)
PRKCE (human) = PRKCE (human) (UniProt Q02156)
PRKG2 (human) = PRKG2 (human) (UniProt Q13237)
RET (human) = RET (human) (UniProt P07949)
SIK1 (human) = SIK1 (human) (UniProt P57059)
SRPK3 (human) = SRPK3 (human) (UniProt Q9UPE1)
STK17A (human) = STK17A (human) (UniProt Q9UEE5)
STK25 (human) = STK25 (human) (UniProt O00506)
STK36 (human) = STK36 (human) (UniProt Q9NRP7)
TAOK3 (human) = TAOK3 (human) (UniProt Q9H2K8)
TIE1 (human) = TIE1 (human) (UniProt P35590)
TNNI3K (human) = TNNI3K (human) (UniProt Q59H18)
[1] = biological target: TYK2 JH2 pseudokinase (human) (UniProt P29597)
PDGFRA (human) = PDGFRA (human) (UniProt P16234)
ROCK1 (human) = ROCK1 (human) (UniProt Q13464)

PRKAA2 (human), sequence (P54646 whole entry, looked up): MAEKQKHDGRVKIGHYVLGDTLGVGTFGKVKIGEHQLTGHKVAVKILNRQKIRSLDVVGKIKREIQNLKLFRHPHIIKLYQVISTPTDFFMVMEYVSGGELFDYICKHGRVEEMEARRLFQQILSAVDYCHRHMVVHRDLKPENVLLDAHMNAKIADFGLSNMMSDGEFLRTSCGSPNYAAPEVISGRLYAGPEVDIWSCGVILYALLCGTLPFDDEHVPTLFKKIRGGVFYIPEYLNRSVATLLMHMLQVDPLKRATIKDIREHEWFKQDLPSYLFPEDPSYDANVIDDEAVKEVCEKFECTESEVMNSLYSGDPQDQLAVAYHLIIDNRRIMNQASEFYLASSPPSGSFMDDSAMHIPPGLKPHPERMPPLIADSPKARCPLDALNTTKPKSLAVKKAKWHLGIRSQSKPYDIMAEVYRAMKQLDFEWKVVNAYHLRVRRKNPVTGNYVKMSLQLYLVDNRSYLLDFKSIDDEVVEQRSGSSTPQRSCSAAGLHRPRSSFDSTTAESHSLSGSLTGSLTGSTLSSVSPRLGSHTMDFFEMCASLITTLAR
MAPK4 (human), sequence (P31152 whole entry, looked up): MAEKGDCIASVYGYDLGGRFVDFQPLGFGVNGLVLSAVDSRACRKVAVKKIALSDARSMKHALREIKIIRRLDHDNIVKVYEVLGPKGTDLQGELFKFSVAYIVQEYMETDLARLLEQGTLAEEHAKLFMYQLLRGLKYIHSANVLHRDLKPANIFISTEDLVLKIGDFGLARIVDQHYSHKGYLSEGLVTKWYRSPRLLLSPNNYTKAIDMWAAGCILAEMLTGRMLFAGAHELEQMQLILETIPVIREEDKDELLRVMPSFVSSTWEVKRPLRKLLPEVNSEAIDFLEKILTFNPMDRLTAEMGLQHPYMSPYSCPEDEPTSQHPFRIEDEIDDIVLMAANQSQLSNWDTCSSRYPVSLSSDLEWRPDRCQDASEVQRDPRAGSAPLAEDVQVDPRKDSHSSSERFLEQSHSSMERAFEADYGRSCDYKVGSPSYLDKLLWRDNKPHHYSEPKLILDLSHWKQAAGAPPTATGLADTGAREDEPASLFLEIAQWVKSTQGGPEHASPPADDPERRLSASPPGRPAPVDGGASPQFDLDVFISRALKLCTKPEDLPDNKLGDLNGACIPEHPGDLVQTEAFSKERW
SRPK3 (human), sequence (Q9UPE1 whole entry, looked up): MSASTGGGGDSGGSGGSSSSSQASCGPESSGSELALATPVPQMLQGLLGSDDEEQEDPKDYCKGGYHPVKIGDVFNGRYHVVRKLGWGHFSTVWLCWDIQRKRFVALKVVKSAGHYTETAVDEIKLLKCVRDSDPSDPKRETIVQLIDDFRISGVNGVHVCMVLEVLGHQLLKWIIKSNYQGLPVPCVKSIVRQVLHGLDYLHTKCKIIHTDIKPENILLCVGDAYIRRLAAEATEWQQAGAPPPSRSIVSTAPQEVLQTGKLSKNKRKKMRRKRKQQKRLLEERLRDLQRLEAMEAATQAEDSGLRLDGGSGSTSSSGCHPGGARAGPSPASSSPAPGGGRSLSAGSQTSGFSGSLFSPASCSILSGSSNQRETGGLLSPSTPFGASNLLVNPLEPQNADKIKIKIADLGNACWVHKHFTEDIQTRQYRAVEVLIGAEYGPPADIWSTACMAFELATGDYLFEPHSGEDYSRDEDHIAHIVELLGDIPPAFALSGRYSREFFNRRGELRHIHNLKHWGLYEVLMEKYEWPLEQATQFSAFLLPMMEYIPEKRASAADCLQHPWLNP
CDK3 (human), sequence (Q00526 whole entry, looked up): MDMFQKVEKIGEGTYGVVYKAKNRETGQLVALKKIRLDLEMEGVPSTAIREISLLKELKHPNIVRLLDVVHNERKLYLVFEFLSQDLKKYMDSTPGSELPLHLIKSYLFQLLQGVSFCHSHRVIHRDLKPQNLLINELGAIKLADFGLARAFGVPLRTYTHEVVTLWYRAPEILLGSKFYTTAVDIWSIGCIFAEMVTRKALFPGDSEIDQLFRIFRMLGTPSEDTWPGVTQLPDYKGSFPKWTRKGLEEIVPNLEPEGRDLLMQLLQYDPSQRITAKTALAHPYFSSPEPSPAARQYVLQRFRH
MAP3K7 (human), sequence (O43318 whole entry, looked up): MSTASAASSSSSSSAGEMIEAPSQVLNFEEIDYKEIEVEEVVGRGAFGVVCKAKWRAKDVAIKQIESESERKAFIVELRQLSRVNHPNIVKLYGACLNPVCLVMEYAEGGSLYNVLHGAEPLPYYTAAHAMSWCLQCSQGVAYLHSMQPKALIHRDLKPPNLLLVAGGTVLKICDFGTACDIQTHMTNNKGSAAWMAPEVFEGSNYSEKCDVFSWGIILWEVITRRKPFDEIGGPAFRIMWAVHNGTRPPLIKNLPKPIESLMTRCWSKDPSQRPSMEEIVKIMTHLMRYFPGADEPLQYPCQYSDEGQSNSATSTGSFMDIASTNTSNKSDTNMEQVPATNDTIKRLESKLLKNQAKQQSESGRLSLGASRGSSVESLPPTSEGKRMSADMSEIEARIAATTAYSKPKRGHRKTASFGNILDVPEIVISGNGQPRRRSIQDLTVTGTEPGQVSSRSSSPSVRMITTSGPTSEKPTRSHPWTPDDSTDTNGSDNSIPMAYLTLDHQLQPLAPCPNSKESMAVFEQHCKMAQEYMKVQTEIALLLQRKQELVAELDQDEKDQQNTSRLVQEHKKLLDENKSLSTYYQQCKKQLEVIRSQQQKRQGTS
CLK1 (human), sequence (P49759 whole entry, looked up): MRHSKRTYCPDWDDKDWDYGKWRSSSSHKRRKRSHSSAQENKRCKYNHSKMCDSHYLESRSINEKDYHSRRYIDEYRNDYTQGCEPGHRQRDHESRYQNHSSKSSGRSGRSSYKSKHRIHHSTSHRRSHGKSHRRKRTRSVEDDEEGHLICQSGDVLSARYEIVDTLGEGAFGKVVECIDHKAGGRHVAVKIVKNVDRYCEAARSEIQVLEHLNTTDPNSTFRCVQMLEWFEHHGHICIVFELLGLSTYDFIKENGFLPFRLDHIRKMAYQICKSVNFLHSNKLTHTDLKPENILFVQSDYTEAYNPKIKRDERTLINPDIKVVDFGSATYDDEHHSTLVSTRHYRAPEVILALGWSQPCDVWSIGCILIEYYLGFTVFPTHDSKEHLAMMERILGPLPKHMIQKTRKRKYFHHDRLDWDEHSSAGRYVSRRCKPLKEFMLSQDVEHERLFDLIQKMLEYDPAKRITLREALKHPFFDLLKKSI
MARK1 (human), sequence (Q9P0L2 whole entry, looked up): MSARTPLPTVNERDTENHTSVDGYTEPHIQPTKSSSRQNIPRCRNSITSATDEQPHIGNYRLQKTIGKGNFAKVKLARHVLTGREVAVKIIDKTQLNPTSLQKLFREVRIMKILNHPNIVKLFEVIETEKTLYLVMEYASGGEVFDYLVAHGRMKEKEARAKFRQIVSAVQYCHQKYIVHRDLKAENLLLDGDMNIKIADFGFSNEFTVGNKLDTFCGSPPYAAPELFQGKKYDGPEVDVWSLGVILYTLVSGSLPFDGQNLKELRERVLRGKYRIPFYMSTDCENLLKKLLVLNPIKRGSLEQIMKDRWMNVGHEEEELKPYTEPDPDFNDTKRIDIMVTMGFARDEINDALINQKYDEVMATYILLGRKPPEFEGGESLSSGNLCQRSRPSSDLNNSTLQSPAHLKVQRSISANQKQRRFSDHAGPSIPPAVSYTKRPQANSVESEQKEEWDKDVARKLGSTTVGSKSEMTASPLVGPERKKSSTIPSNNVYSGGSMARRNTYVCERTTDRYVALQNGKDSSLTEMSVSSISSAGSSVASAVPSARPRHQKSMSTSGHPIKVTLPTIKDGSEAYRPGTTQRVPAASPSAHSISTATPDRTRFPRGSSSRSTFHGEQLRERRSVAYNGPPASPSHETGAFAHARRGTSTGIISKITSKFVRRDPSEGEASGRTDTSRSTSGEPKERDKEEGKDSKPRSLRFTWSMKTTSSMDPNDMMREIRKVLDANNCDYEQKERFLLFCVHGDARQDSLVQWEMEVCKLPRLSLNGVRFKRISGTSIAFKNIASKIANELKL
SIK1 (human), sequence (P57059 whole entry, looked up): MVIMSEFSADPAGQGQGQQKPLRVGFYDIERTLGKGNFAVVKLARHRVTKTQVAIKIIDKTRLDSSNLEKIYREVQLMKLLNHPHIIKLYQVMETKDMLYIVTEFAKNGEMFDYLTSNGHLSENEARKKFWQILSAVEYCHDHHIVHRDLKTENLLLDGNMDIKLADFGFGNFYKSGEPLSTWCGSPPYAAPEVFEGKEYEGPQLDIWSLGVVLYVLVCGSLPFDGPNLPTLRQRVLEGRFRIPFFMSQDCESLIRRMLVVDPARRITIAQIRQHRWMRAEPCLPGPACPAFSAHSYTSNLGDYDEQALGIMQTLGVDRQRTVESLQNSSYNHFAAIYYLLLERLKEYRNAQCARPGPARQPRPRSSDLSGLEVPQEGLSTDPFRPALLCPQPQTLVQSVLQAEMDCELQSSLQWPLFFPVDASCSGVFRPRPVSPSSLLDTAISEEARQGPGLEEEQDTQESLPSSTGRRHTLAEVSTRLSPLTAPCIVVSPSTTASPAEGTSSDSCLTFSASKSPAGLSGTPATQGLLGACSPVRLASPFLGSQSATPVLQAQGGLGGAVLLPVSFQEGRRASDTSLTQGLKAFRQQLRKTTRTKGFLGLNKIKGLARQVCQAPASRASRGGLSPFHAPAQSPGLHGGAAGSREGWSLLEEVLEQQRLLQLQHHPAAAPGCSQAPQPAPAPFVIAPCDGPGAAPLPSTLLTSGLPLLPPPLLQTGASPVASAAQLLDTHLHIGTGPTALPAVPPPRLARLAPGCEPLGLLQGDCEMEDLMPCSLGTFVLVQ

| SMILES | kinase still bound, per cent of control (ACVR1B (human)) [%] | kinase still bound, per cent of control (BMPR1A (human)) [%] | kinase still bound, per cent of control (CDC42BPA (human)) [%] | kinase still bound, per cent of control (CDK15 (human)) [%] | kinase still bound, per cent of control (CDK3 (human)) [%] | kinase still bound, per cent of control (CLK1 (human)) [%] | kinase still bound, per cent of control (FGFR1 (human)) [%] | kinase still bound, per cent of control (FLT3 (human)) [%] | kinase still bound, per cent of control (GRK4 (human)) [%] | kinase still bound, per cent of control (HIPK1 (human)) [%] | kinase still bound, per cent of control (IKBKB (human)) [%] | kinase still bound, per cent of control (MAP3K1 (human)) [%] | kinase still bound, per cent of control (MAP3K4 (human)) [%] | kinase still bound, per cent of control (MAP3K5 (human)) [%] | kinase still bound, per cent of control (MAP3K7 (human)) [%] | kinase still bound, per cent of control (MAPK10 (human)) [%] | kinase still bound, per cent of control (MAPK4 (human)) [%] | kinase still bound, per cent of control (MAPKAPK2 (human)) [%] | kinase still bound, per cent of control (MARK1 (human)) [%] | kinase still bound, per cent of control (NLK (human)) [%] | other results |
| --- | --- | --- | --- | --- | --- | --- | --- | --- | --- | --- | --- | --- | --- | --- | --- | --- | --- | --- | --- | --- | --- |
| NC(=O)Nc1cc(-c2cccc(F)c2)sc1C(=O)N[C@@H]1CCCNC1 | 28 | 0.4 | 62 | 73 | 100 | 1.2 | 1.3 | 0 | 0 | 7.2 | 2.5 | 51 | 42 | 40 | 0 | 63 | 61 | 0 | 2.6 | 81 | kinase still bound, per cent of control (CSK (human)): 0.05%; kinase still bound, per cent of control (LRRK2 (human)): 4%; kinase still bound, per cent of control (PIM2 (human)): 57%; kinase still bound, per cent of control (PIM3 (human)): 15%; kinase still bound, per cent of control (PRKAA1 (human)): 0.2%; kinase still bound, per cent of control (PRKAA2 (human)): 0.35%; kinase still bound, per cent of control (PRKCE (human)): 14%; kinase still bound, per cent of control (PRKG2 (human)): 0.5%; kinase still bound, per cent of control (RET (human)): 0%; kinase still bound, per cent of control (SIK1 (human)): 0.3%; kinase still bound, per cent of control (SRPK3 (human)): 0.55%; kinase still bound, per cent of control (STK17A (human)): 0.55%; kinase still bound, per cent of control (STK25 (human)): 0%; kinase still bound, per cent of control (STK36 (human)): 74%; kinase still bound, per cent of control (TAOK3 (human)): 2.9%; kinase still bound, per cent of control (TIE1 (human)): 7.2%; kinase still bound, per cent of control (TNNI3K (human)): 7.3%; kinase still bound, per cent of control [1]: 3.2% |
| C[C@@H](Oc1cc(-c2cnn(C3CCNCC3)c2)cnc1N)c1c(Cl)ccc(F)c1Cl | 9 | 0.15 | 43 | 73 | 100 | 84 | 46 | 7.8 | 14 | 78 | 14 | 4.4 | 34 | 100 | 8.2 | 80 | 84 | 100 | 36 | 93 | kinase still bound, per cent of control (LRRK2 (human)): 97%; kinase still bound, per cent of control (PDGFRA (human)): 92%; kinase still bound, per cent of control (PIM2 (human)): 100%; kinase still bound, per cent of control (PIM3 (human)): 100%; kinase still bound, per cent of control (PRKAA1 (human)): 8%; kinase still bound, per cent of control (PRKAA2 (human)): 17%; kinase still bound, per cent of control (PRKCE (human)): 100%; kinase still bound, per cent of control (PRKG2 (human)): 89%; kinase still bound, per cent of control (ROCK1 (human)): 4%; kinase still bound, per cent of control (SIK1 (human)): 24%; kinase still bound, per cent of control (SRPK3 (human)): 15%; kinase still bound, per cent of control (STK17A (human)): 100%; kinase still bound, per cent of control (STK25 (human)): 65%; kinase still bound, per cent of control (STK36 (human)): 100%; kinase still bound, per cent of control (TAOK3 (human)): 1.4%; kinase still bound, per cent of control [1]: 2.3% |
| CCN(CC)CCCCNc1ncc2c(n1)N(C)C(=O)N(c1c(Cl)c(OC)cc(OC)c1Cl)C2 | 100 | 100 | 100 | 100 | 100 | 100 | 0.25 | 100 | 100 | 100 | 100 | 100 | 5.3 | 100 | 100 | 100 | 100 | 100 | 100 | 100 | kinase still bound, per cent of control (CSK (human)): 100%; kinase still bound, per cent of control (PDGFRA (human)): 100%; kinase still bound, per cent of control (PIM2 (human)): 100%; kinase still bound, per cent of control (PIM3 (human)): 100%; kinase still bound, per cent of control (PRKAA1 (human)): 100%; kinase still bound, per cent of control (PRKAA2 (human)): 100%; kinase still bound, per cent of control (PRKCE (human)): 100%; kinase still bound, per cent of control (PRKG2 (human)): 100%; kinase still bound, per cent of control (RET (human)): 100%; kinase still bound, per cent of control (ROCK1 (human)): 100%; kinase still bound, per cent of control (SIK1 (human)): 100%; kinase still bound, per cent of control (SRPK3 (human)): 100%; kinase still bound, per cent of control (STK17A (human)): 100%; kinase still bound, per cent of control (STK25 (human)): 100%; kinase still bound, per cent of control (STK36 (human)): 100%; kinase still bound, per cent of control (TAOK3 (human)): 0.4%; kinase still bound, per cent of control (TIE1 (human)): 10%; kinase still bound, per cent of control (TNNI3K (human)): 100%; kinase still bound, per cent of control [1]: 100% |
